Experimental data as given in ChEMBL document CHEMBL2380247, “Synthesis and biological evaluation of novel aliphatic amido-quaternary ammonium salts for anticancer chemotherapy: part II” (2013).

Tests used:
Format in all cases: functional
PC-3 [1] = experiment: Antiproliferative activity against human PC3 cells at 1 uM by SRB assay
ACHN [2] = experiment: Antiproliferative activity against human ACHN cells at 0.1 uM by SRB assay
ACHN [3] = experiment: Antiproliferative activity against human ACHN cells at 0.3 uM by SRB assay
NCI-H23 [4] = experiment: Antiproliferative activity against human NCI-H23 cells at 10 uM by SRB assay
MDA-MB-231 [5] = experiment: Antiproliferative activity against human MDA-MB-231 cells at 10 uM by SRB assay
NUGC-3 [6] = experiment: Antiproliferative activity against human NUGC3 cells at 0.3 uM by SRB assay
NCI-H23 [7] = experiment: Antiproliferative activity against human NCI-H23 cells at 3 uM by SRB assay
HCT-15 [8] = experiment: Antiproliferative activity against human HCT15 cells at 0.1 uM by SRB assay
NCI-H23 [9] = experiment: Antiproliferative activity against human NCI-H23 cells at 1 uM by SRB assay
NCI-H23 [10] = experiment: Antiproliferative activity against human NCI-H23 cells at 0.1 uM by SRB assay
PC-3 [11] = experiment: Antiproliferative activity against human PC3 cells at 0.3 uM by SRB assay
PC-3 [12] = experiment: Antiproliferative activity against human PC3 cells by SRB assay
ACHN [13] = experiment: Antiproliferative activity against human ACHN cells at 1 uM by SRB assay
PC-3 [14] = experiment: Antiproliferative activity against human PC3 cells at 3 uM by SRB assay
NUGC-3 [15] = experiment: Antiproliferative activity against human NUGC3 cells by SRB assay
NCI-H23 [16] = experiment: Antiproliferative activity against human NCI-H23 cells by SRB assay
HCT-15 [17] = experiment: Antiproliferative activity against human HCT15 cells at 1 uM by SRB assay
HCT-15 [18] = experiment: Antiproliferative activity against human HCT15 cells at 3 uM by SRB assay
NUGC-3 [19] = experiment: Antiproliferative activity against human NUGC3 cells at 10 uM by SRB assay
PC-3 [20] = experiment: Antiproliferative activity against human PC3 cells at 0.1 uM by SRB assay
MDA-MB-231 [21] = experiment: Antiproliferative activity against human MDA-MB-231 cells by SRB assay
PC-3 [22] = experiment: Antiproliferative activity against human PC3 cells at 10 uM by SRB assay
HCT-15 [23] = experiment: Antiproliferative activity against human HCT15 cells at 0.3 uM by SRB assay
ACHN [24] = experiment: Antiproliferative activity against human ACHN cells at 3 uM by SRB assay
MDA-MB-231 [25] = experiment: Antiproliferative activity against human MDA-MB-231 cells at 3 uM by SRB assay
NUGC-3 [26] = experiment: Antiproliferative activity against human NUGC3 cells at 3 uM by SRB assay
NCI-H23 [27] = experiment: Antiproliferative activity against human NCI-H23 cells at 0.3 uM by SRB assay
HCT-15 [28] = experiment: Antiproliferative activity against human HCT15 cells at 10 uM by SRB assay
MDA-MB-231 [29] = experiment: Antiproliferative activity against human MDA-MB-231 cells at 1 uM by SRB assay
MDA-MB-231 [30] = experiment: Antiproliferative activity against human MDA-MB-231 cells at 0.3 uM by SRB assay
ACHN [31] = experiment: Antiproliferative activity against human ACHN cells by SRB assay
HCT-15 [32] = experiment: Antiproliferative activity against human HCT15 cells by SRB assay
MDA-MB-231 [33] = experiment: Antiproliferative activity against human MDA-MB-231 cells at 0.1 uM by SRB assay
ACHN [34] = experiment: Antiproliferative activity against human ACHN cells at 10 uM by SRB assay
NUGC-3 [35] = experiment: Antiproliferative activity against human NUGC3 cells at 1 uM by SRB assay
NUGC-3 [36] = experiment: Antiproliferative activity against human NUGC3 cells at 0.1 uM by SRB assay

Row | Compound | growth, % of control at 1 µM (PC-3 [1]) [%] | growth, % of control at 0.1 µM (ACHN [2]) [%] | growth, % of control at 0.3 µM (ACHN [3]) [%] | growth, % of control at 10 µM (NCI-H23 [4]) [%] | growth, % of control at 10 µM (MDA-MB-231 [5]) [%] | growth, % of control at 0.3 µM (NUGC-3 [6]) [%] | growth, % of control at 3 µM (NCI-H23 [7]) [%] | growth, % of control at 0.1 µM (HCT-15 [8]) [%] | growth, % of control at 1 µM (NCI-H23 [9]) [%] | growth, % of control at 0.1 µM (NCI-H23 [10]) [%] | growth, % of control at 0.3 µM (PC-3 [11]) [%] | GI50 (PC-3 [12]) [nM] | growth, % of control at 1 µM (ACHN [13]) [%] | growth, % of control at 3 µM (PC-3 [14]) [%] | GI50 (NUGC-3 [15]) [nM] | GI50 (NCI-H23 [16]) [nM] | growth, % of control at 1 µM (HCT-15 [17]) [%] | growth, % of control at 3 µM (HCT-15 [18]) [%] | growth, % of control at 10 µM (NUGC-3 [19]) [%] | growth, % of control at 0.1 µM (PC-3 [20]) [%] | further results
1 | C=CC[N+](CC)(CC)CCN(C)C(=O)CCCCCCCCCCCCCCC | 0.8 | 115 | 87.7 | -15 | -6.4 | 76.9 | 10.7 | 86.1 | 19.3 | 81.2 | 81.8 | 200 | 30.2 | -14.3 | 270 | 170 | 78.6 | 55.2 | -6.2 | 92.9 | GI50 (MDA-MB-231 [21]): 440 nM; growth, % of control at 10 µM (PC-3 [22]): -19.6%; growth, % of control at 0.3 µM (HCT-15 [23]): 87.9%; growth, % of control at 3 µM (ACHN [24]): 8.1%; growth, % of control at 3 µM (MDA-MB-231 [25]): 21%; growth, % of control at 3 µM (NUGC-3 [26]): 5.3%; growth, % of control at 0.3 µM (NCI-H23 [27]): 54.8%; growth, % of control at 10 µM (HCT-15 [28]): 32%; growth, % of control at 1 µM (MDA-MB-231 [29]): 38.7%; growth, % of control at 0.3 µM (MDA-MB-231 [30]): 92.5%; GI50 (ACHN [31]): 350 nM; GI50 (HCT-15 [32]): 1980 nM; growth, % of control at 0.1 µM (MDA-MB-231 [33]): 96.1%; growth, % of control at 10 µM (ACHN [34]): -18.9%; growth, % of control at 1 µM (NUGC-3 [35]): 22.9%; growth, % of control at 0.1 µM (NUGC-3 [36]): 101%
2 | C=CC[N+](C)(C)CCCN(C)C(=O)CCCCCCCCCCCCCCC | 41.9 | 81 | 77.3 | -13.6 | 11.6 | 92.8 | 23.9 | 97.4 | 65.5 | 93.2 | 98 | 430 | 53.3 | 7.93 | 360 | 680 | 103 | 81.2 | -30.4 | 98.5 | GI50 (MDA-MB-231 [21]): 800 nM; growth, % of control at 10 µM (PC-3 [22]): -11.9%; growth, % of control at 0.3 µM (HCT-15 [23]): 103%; growth, % of control at 3 µM (ACHN [24]): 30%; growth, % of control at 3 µM (MDA-MB-231 [25]): 33.8%; growth, % of control at 3 µM (NUGC-3 [26]): -13.9%; growth, % of control at 0.3 µM (NCI-H23 [27]): 94.7%; growth, % of control at 10 µM (HCT-15 [28]): 58%; growth, % of control at 1 µM (MDA-MB-231 [29]): 66%; growth, % of control at 0.3 µM (MDA-MB-231 [30]): 88.3%; GI50 (ACHN [31]): 470 nM; GI50 (HCT-15 [32]): > 10000 nM; growth, % of control at 0.1 µM (MDA-MB-231 [33]): 86.5%; growth, % of control at 10 µM (ACHN [34]): -6.41%; growth, % of control at 1 µM (NUGC-3 [35]): 28.1%; growth, % of control at 0.1 µM (NUGC-3 [36]): 105%
3 | CCCCCCCCCCCCCCCCCC(=O)NCC(C)(C)C[N+](C)(C)CC | 21.6 | 91.5 | 82.9 | -18.3 | 19.9 | 69.6 | 29.8 | 98 | 74.7 | 95.1 | 82.2 | 300 | 75.5 | -38.3 | 420 | 980 | 86.8 | 61.6 | 2.11 | 89.5 | GI50 (MDA-MB-231 [21]): 1120 nM; growth, % of control at 10 µM (PC-3 [22]): -46.2%; growth, % of control at 0.3 µM (HCT-15 [23]): 96.7%; growth, % of control at 3 µM (ACHN [24]): 50%; growth, % of control at 3 µM (MDA-MB-231 [25]): 40.4%; growth, % of control at 3 µM (NUGC-3 [26]): 14.8%; growth, % of control at 0.3 µM (NCI-H23 [27]): 97.7%; growth, % of control at 10 µM (HCT-15 [28]): 32.6%; growth, % of control at 1 µM (MDA-MB-231 [29]): 70.4%; growth, % of control at 0.3 µM (MDA-MB-231 [30]): 79.1%; GI50 (ACHN [31]): 1950 nM; GI50 (HCT-15 [32]): 2740 nM; growth, % of control at 0.1 µM (MDA-MB-231 [33]): 87.8%; growth, % of control at 10 µM (ACHN [34]): 33%; growth, % of control at 1 µM (NUGC-3 [35]): 52.5%; growth, % of control at 0.1 µM (NUGC-3 [36]): 83.1%
4 | C=CC[N+](C)(C)CCCN(C)C(=O)CCCCCCCCCCCCC | 35.4 | 104 | 96.8 | -7.17 | 15.5 | 82.8 | 12.2 | 90.4 | 55.6 | 88.5 | 82.3 | 310 | 96 | -10.8 | 280 | 460 | 92.8 | 79.4 | -1.98 | 93.3 | GI50 (MDA-MB-231 [21]): 1350 nM; growth, % of control at 10 µM (PC-3 [22]): -20.4%; growth, % of control at 0.3 µM (HCT-15 [23]): 82.4%; growth, % of control at 3 µM (ACHN [24]): 67%; growth, % of control at 3 µM (MDA-MB-231 [25]): 48.3%; growth, % of control at 3 µM (NUGC-3 [26]): 4.58%; growth, % of control at 0.3 µM (NCI-H23 [27]): 85.7%; growth, % of control at 10 µM (HCT-15 [28]): 53.2%; growth, % of control at 1 µM (MDA-MB-231 [29]): 86.8%; growth, % of control at 0.3 µM (MDA-MB-231 [30]): 98.9%; GI50 (ACHN [31]): 1890 nM; GI50 (HCT-15 [32]): > 10000 nM; growth, % of control at 0.1 µM (MDA-MB-231 [33]): 99.8%; growth, % of control at 10 µM (ACHN [34]): 14.3%; growth, % of control at 1 µM (NUGC-3 [35]): 32.1%; growth, % of control at 0.1 µM (NUGC-3 [36]): 80.1%
